Among the data in ChEMBL document CHEMBL2385056, “Imidazopyrazine Derivatives As Inhibitors of mTOR” (ACS Med Chem Lett, 2013) are IC50 values, retold here.

In assay [1] the target is mTORC1 (Homo sapiens, UniProt P42345). Briefly: Inhibition of mTORC1 in human PC3 cells assessed as reduction of phosphorylated 4E-BP1Thr37/46 level after 90 mins by HTRF assay. It is filed as cell-based, PC-3. (Time-resolved FRET reads energy transfer from a long-lived donor to a nearby acceptor.)
Assay [2] in a line: Inhibition of mTORC2 in human PC3 cells assessed as reduction of phosphorylated AKT Ser473 level after 90 mins by HTRF assay. It is filed as cell-based. The note with it: PC-3, 1.5 h.

A value given as a limit tells only on which side of the number the result lay.

For `Nc1nc([C@@H]2C[C@H]3CC[C@@H](C2)N3C(=O)c2nnc[nH]2)cn2c(-c3ccc(-c4ncc[nH]4)nc3)cnc12`, the IC50 in assay [1] and in assay [2] was > 10000 nM in each case.
With `Nc1nc([C@@H]2C[C@H]3CC[C@@H](C2)N3C(=O)c2nnc[nH]2)cn2c(-c3cnn(-c4ccccc4)c3)cnc12`, the IC50 in assay [1] amounted to 1860 nM; in assay [2], 1140 nM.
For the compound `Cn1ccc(-c2ccc(-c3cnc4c(N)nc([C@@H]5C[C@H]6CC[C@@H](C5)N6C(=O)c5nnc[nH]5)cn34)cn2)n1`, the IC50 in assay [1] and in assay [2] was 1000 nM each time.
Regarding `Nc1nc([C@@H]2C[C@H]3CC[C@@H](C2)N3C(=O)CO)cn2c(-c3ccc(-c4ccccc4)nc3)cnc12`, the IC50 in assay [1] and in assay [2] was 100 nM in each case.
For `Nc1nc([C@@H]2C[C@H]3CC[C@@H](C2)N3C(=O)c2nnc[nH]2)cn2c(-c3ccc(-c4ccccc4)nc3)cnc12`, the IC50 in assay [1] worked out at 100 nM; in assay [2], 1 nM.

For orientation: IC50 means the concentration at which inhibition is half-maximal.
